Patent US20240301218A1, “Polymeric Antifouling Coating with Antimicrobial Peptides” (THE UNIVERSITY OF BRITISH COLUMBIA, priority 2021, published 2024)
Values after ≈ are worked out from the molar mass of the structure shown. Read-outs that look alike come from different tables or passages of the source. Residues, ends and D or L forms follow the SMILES beside them. No end group written: not given here.

Tests used:
S. aureus = tested on: S. aureus
Source text: (§1) Ultra-high molecular weight poly(N,N-dimethylacrylamide) (uhPDMA) and high molecular weight poly(N,N-dimethylacrylamide) (hPDMA) were synthesized by atom transfer radical polymerization 391. N-(3-Aminopropyl) methacrylamide hydrochloride (APMA) (98%) was purchased from Polysciences™, USA and was used as supplied. All other reagents including 1, 1, 4, 7, 10, 10-hexamethyl triethylene tetramine (HMTETA) (97%), Tris[2-(dimethylamino)ethyl]amine (Me6TREN) 97%, methyl 2-chloropropionate (97%), CuCl (99%), CuCl2 (99%), 1-thioglycerol (97%) were purchased from Sigma-Aldrich™ (Oakville, ON). A single-side-polished silicon wafer (University Wafer™, Boston, MA) deposited with titanium was prepared by e-beam evaporation of titanium. The process was progressed in a home-assembled Evaporator 2000™ system equipped with a quartz crystal microbalance to monitor the film thickness and a cryo pump to reach high-vacuum (10^−7-10^−6 Torr) condition. After deposition, the substrates were washed with Milli-Q water™, dried via a nitrogen gun, and stored for further usage. SurFlash™I.V. Catheter Cat. #SR*FF1451, #SR*FF2419 (14 Gauge and 24 Gauge) made of polyurethane (PU), were purchased from Terumo™. […] Pure products were finally characterized by analytical reverse phase high performance liquid chromatography (RP-HPLC) and liquid chromatography-mass spectrometry (LC-MS). The broth microdilution method with minor modifications for cationic peptides was used for measuring the MICs of peptides.

P. aeruginosa = tested on: P. aeruginosa
Source text: as §1

E. coli = tested on: E. coli
Source text: as §1

S. saprophyticus = tested on: S. saprophyticus
Source text: as §1

[1] = tested on: S. saprophyticus (ATCC 15305); test: 96-well plate screening of surface conjugated AMPs for biofilm inhibition; assay type: cell-based; details: AMP tethered on BA coating, polypropylene 96-well plate, 24 h, vs uncoated pp
Experimental: (§2) Screening and Identification of Surface Conjugated AMPs with Anti-Biofilm Activity on a 96-Well Plate Bioluminescence-tagged bacterial strains used in this study included S. aureus (Xen36), P. aeruginosa (PAO1.lux), E. coli (E38.lux), and S. saprophyticus (ATCC 15305). Bacteria were cultured in LB, with shaking at 250 rpm, at 37° C. Bacterial growth was monitored using a spectrophotometer at the optical density of 600 nm (OD600). S. aureus Xen36 was purchased from PerkinElmer Inc.™ while P. aeruginosa PAO1.lux and E. coli E38.lux were generated by conjugating in plasmids that constitutively-expressed lux reporter genes^[40]. The biofilm inhibitory activity of AMPs conjugated onto coated polypropylene surfaces were evaluated in a static microtitre plate assay as previously described with some modifications^[41]. For all experiments, 96-well Costar™ polypropylene plates (Corning™) were used. An overnight culture of selected bacterial strains in LB was diluted to an OD600=0.01 in TSB or basal medium 2 (BM2) supplemented with 0.1% or 0.4% glucose and 0.5 mM MgSO4, (the biofilm growth medium for different bacteria is listed in TABLE 1).
(§3) For inhibition experiments, 100 μL of the diluted overnight culture was added to each well in the plate coated with control coating and AMP coating, respectively. After overnight growth under static condition at 37° C., planktonic cells were removed, adhered biomass rinsed three times with distilled water and subsequently the remaining adhered total biomass was quantified by measuring the luminescence (Total white light) using the Synergy H1™ multimode microtitre plate reader (BioTek™). The remaining adhered S. saprophyticus biomass was quantified using the crystal violet (CV) staining. Briefly, each well was added and incubated with 125 μL of 0.1% (v/v) CV solution for 30 minutes at room temperature with moderate shaking. Then, CV was discarded, and each well was rinsed three times with distilled water. The remaining CV stain was resuspended in 150 μL of 70% ethanol for 30 minutes at room temperature with moderate shaking and then quantified by measuring OD59, using the Synergy H1™ multimode microplate plate reader (BioTek™). The percent biofilm inhibition was calculated in relation to the amount of biofilm grown in the absence of the coating (defined as 100%) and the media sterility control (defined as 0% growth). The experiment was repeated 3 times with 3 technical replicates per biological replicate.

S. aureus (Xen36) = test: as above; assay type: cell-based; details: AMP tethered on BA coating, polypropylene 96-well plate, vs uncoated pp
Experimental: as §2, §3

P. aeruginosa (PAO1.lux) = test: as above; assay type: cell-based; details: AMP tethered on BA coating, polypropylene 96-well plate, vs uncoated pp
Experimental: as §2, §3

S. epidermidis = test: Antimicrobial activity of BA-AMPs coating against planktonic bacteria; assay type: cell-based; details: MHB medium, 24 h, coated PP wells
Experimental: The uhPDMA was prepared at a concentration of 36 mg mL^−1 in sodium acetate buffer (50 mM, pH=5). Dopamine was freshly prepared at a concentration of 12 mg mL^−1 in sodium acetate buffer (50 mM, pH=5) before each experiment. Sodium periodate (NaIO4) was freshly prepared at a concentration of 28 mg mL-1 in sodium acetate buffer (50 mm, pH=5). The dopamine solution was then mixed with uhPDMA solution with a volume ratio of 1:5 (dopamine:uhPDMA). Sodium periodate solution was then added to generate a final concentration of uhPDMA at 30 mg mL^−1, dopamine at 2 mg mL^−1, and NaIO4 at 0.9 mg mL^−1. Mixed solution (200 μL) was added into the wells of 96-well polypropylene plate. The plate was placed onto a rocking platform with shaking at 50 rpm for 2 hr. The coated plate was then rinsed by Milli-Q™ water and dried for further characterization. Peptide solutions (200 μL, 0.25 mg/mL in 10 mM phosphate buffer, pH ˜8) were added into the wells and incubated for 24 h. The peptide-conjugated plate were rinsed with Milli-Q™ water thoroughly and dried under argon flow. […] After 24 hrs growth under shaking condition at room temperature, bacteria culture (100 μL) was transferred to sterile clear polystyrene plate and the optical density was read using UV-vis spectrometer at wavelength 595 nm. […]

E. coli (E38.lux) = test: 96-well plate screening of surface conjugated AMPs for biofilm inhibition; assay type: cell-based; details: AMP tethered on BA coating, polypropylene 96-well plate, vs uncoated pp
Experimental: as §2, §3

CC[C@@H](C)[C@@H](NC(=O)[C@@H](C)NC(=O)[C@@H](CCCNC(=N)N)NC(=O)[C@@H](Cc1c[nH]c2ccccc12)NC(=O)[C@@H](CCC(N)=O)NC(=O)[C@H](N)C(C)C)C(=O)N[C@H](CCCNC(=N)N)C(=O)N[C@@H](C(=O)N[C@H](CCCNC(=N)N)C(=O)N[C@@H](C(=O)N[C@@H](C(=O)N[C@H](CCCNC(=N)N)C(N)=O)[C@H](C)CC)C(C)C)C(C)C [DJK5, vqwrairvrvir] (HELM PEPTIDE1{[dV].[dQ].[dW].[dR].[dA].[dI].[dR].[dV].[dR].[dV].[dI].[dR].[am]}$$$$V2.0; N-terminus assumed)
MIC S. aureus (S. aureus): 16 µg/mL (≈ 10.3 µM) | MIC P. aeruginosa (P. aeruginosa): 16 µg/mL (≈ 10.3 µM) | MIC E. coli (E. coli): 1.6 µg/mL (≈ 1.03 µM) | MIC S. saprophyticus (S. saprophyticus): 2 µg/mL (≈ 1.29 µM) | reduction of biofilm formation [1]: 83.4% | reduction of biofilm formation (S. aureus (Xen36)): 90.5%

CC[C@@H](C)[C@@H](NC(=O)[C@@H](C)NC(=O)[C@@H](CCCNC(=N)N)NC(=O)[C@@H](Cc1c[nH]c2ccccc12)NC(=O)[C@@H](CCC(N)=O)NC(=O)[C@H](N)C(C)C)C(=O)N[C@H](CCCNC(=N)N)C(=O)N[C@@H](C(=O)N[C@H](CCCNC(=N)N)C(=O)N[C@@H](C(=O)N[C@@H](C(=O)N[C@H](CCCNC(=N)N)C(=O)N[C@H](CS)C(N)=O)[C@H](C)CC)C(C)C)C(C)C [DJK5C, vqwrairvrvirc-NH2] (HELM PEPTIDE1{[dV].[dQ].[dW].[dR].[dA].[dI].[dR].[dV].[dR].[dV].[dI].[dR].[dC].[am]}$$$$V2.0; N-terminus assumed)
MIC S. aureus (S. aureus): 16 µg/mL (≈ 9.67 µM) | MIC P. aeruginosa (P. aeruginosa): 16 µg/mL (≈ 9.67 µM) | MIC E. coli (E. coli): 4 µg/mL (≈ 2.42 µM) | MIC S. saprophyticus (S. saprophyticus): 2 µg/mL (≈ 1.21 µM) | reduction of biofilm formation [1]: ~100% | reduction of biofilm formation (P. aeruginosa (PAO1.lux)): 99.1% | reduction of biofilm formation (S. aureus (Xen36)): 95.1%

CC[C@H](C)[C@H](NC(=O)[C@H](CCCNC(=N)N)NC(=O)[C@H](Cc1c[nH]c2ccccc12)NC(=O)[C@H](CCCNC(=N)N)NC(=O)[C@@H](N)CCCCN)C(=O)N[C@@H](CCCNC(=N)N)C(=O)N[C@H](C(=O)N[C@@H](CCCNC(=N)N)C(=O)N[C@H](C(=O)N[C@H](C(=O)N[C@@H](CCCNC(=N)N)C(=O)N[C@@H](CCCCN)C(=O)NCCC(=O)NCCC(=O)N[C@@H](CS)C(N)=O)[C@@H](C)CC)C(C)C)C(C)C [Tet20LC, KRWRIRVRVIRK-bA-bA-C—NH2] (HELM PEPTIDE1{K.R.W.R.I.R.V.R.V.I.R.K.[bAla].[bAla].C.[am]}$$$$V2.0; N-terminus assumed)
MIC S. aureus (S. aureus): 64 µg/mL (≈ 33.5 µM) | MIC P. aeruginosa (P. aeruginosa): 16 µg/mL (≈ 8.38 µM) | MIC E. coli (E. coli): 4 µg/mL (≈ 2.09 µM) | MIC S. saprophyticus (S. saprophyticus): 2 µg/mL (≈ 1.05 µM) | reduction of biofilm formation [1]: ~100% | reduction of biofilm formation (P. aeruginosa (PAO1.lux)): 100% | reduction of biofilm formation (S. aureus (Xen36)): 100%

ILVRWIRWRIQWC-NH2 [3002C, ILVRWIRWRIQWC-NH2]
MIC S. aureus (S. aureus): 32 µg/mL | MIC P. aeruginosa (P. aeruginosa): 128 µg/mL | MIC E. coli (E. coli): 16 µg/mL | MIC S. saprophyticus (S. saprophyticus): 8 µg/mL | reduction of biofilm formation (P. aeruginosa (PAO1.lux)): 32.4% | reduction of biofilm formation (S. aureus (Xen36)): 93.6%

KRWRIRVRVIRKC-NH2 [Tet20C, KRWRIRVRVIRKC-NH2]
MIC S. aureus (S. aureus): 64 µg/mL | MIC P. aeruginosa (P. aeruginosa): 8 µg/mL | MIC E. coli (E. coli): 4 µg/mL | MIC S. saprophyticus (S. saprophyticus): 2 µg/mL | reduction of biofilm formation [1]: ~100% | reduction of biofilm formation (P. aeruginosa (PAO1.lux)): 99.6% | reduction of biofilm formation (S. aureus (Xen36)): 98.8%

RRWRIVVIRVRRC-NH2 [E6, RRWRIVVIRVRRC-NH2]
killing of planktonic S. epidermidis (S. epidermidis): complete killing | MIC S. aureus (S. aureus): 64 µg/mL | MIC P. aeruginosa (P. aeruginosa): 32 µg/mL | MIC E. coli (E. coli): 8 µg/mL | MIC S. saprophyticus (S. saprophyticus): 4 µg/mL | reduction of biofilm formation (E. coli (E38.lux)): 91.8% | reduction of biofilm formation (P. aeruginosa (PAO1.lux)): 98.2% | reduction of biofilm formation (S. aureus (Xen36)): 93%

VRLIVAVRIWRR-NH2 [IDR-1018, VRLIVAVRIWRR-NH2]
MIC S. aureus (S. aureus; soluble peptide): 16 µg/mL | MIC P. aeruginosa (P. aeruginosa; soluble peptide): 64 µg/mL | MIC E. coli (E. coli; soluble peptide): 9.3 µg/mL | MIC S. saprophyticus (S. saprophyticus; soluble peptide): 2 µg/mL | reduction of biofilm formation [1]: 82.2% | reduction of biofilm formation (P. aeruginosa (PAO1.lux)): 83.2% | reduction of biofilm formation (S. aureus (Xen36)): 93.5%

rivrvrairwqv (RIVRVRAIRWQV; HELM PEPTIDE1{[dR].[dI].[dV].[dR].[dV].[dR].[dA].[dI].[dR].[dW].[dQ].[dV].[am]}$$$$V2.0; N-terminus assumed; SMILES CC[C@@H](C)[C@@H](NC(=O)[C@H](N)CCCNC(=N)N)C(=O)N[C@@H](C(=O)N[C@H](CCCNC(=N)N)C(=O)N[C@@H](C(=O)N[C@H](CCCNC(=N)N)C(=O)N[C@H](C)C(=O)N[C@@H](C(=O)N[C@H](CCCNC(=N)N)C(=O)N[C@H](Cc1c[nH]c2ccccc12)C(=O)N[C@H](CCC(N)=O)C(=O)N[C@@H](C(N)=O)C(C)C)[C@H](C)CC)C(C)C)C(C)C) [RI-DJK5]
reduction of biofilm formation (P. aeruginosa (PAO1.lux)): 76.2%

vqwrrirvwvir (VQWRRIRVWVIR; HELM PEPTIDE1{[dV].[dQ].[dW].[dR].[dR].[dI].[dR].[dV].[dW].[dV].[dI].[dR].[am]}$$$$V2.0; N-terminus assumed; SMILES CC[C@@H](C)[C@@H](NC(=O)[C@@H](CCCNC(=N)N)NC(=O)[C@@H](CCCNC(=N)N)NC(=O)[C@@H](Cc1c[nH]c2ccccc12)NC(=O)[C@@H](CCC(N)=O)NC(=O)[C@H](N)C(C)C)C(=O)N[C@H](CCCNC(=N)N)C(=O)N[C@@H](C(=O)N[C@H](Cc1c[nH]c2ccccc12)C(=O)N[C@@H](C(=O)N[C@@H](C(=O)N[C@H](CCCNC(=N)N)C(N)=O)[C@H](C)CC)C(C)C)C(C)C) [DJK6]
reduction of biofilm formation [1]: 83.5% | reduction of biofilm formation (P. aeruginosa (PAO1.lux)): 58.8%
